Laboratory results from patent EP4813989A1, “CRYSTAL, PHARMACEUTICAL COMPOSITION, PREPARATION METHOD THEREFOR, AND USE THEREOF” (TYK Medicines, Inc., priority 2023, dated 2025).

Test: Pharmacokinetic test in SD rats
Assay type: in vivo
Conditions: for AUC(0-inf) / AUC(0-t) / Cmax / MRT last / Tmax: rat, plasma, po; for AUC(0-inf) / AUC(0-t) / Cmax / MRT last / Tmax / Plasma concentration: 10 mg/kg; for Plasma concentration: 10 mg/kg p.o., listed as compound represented by formula I (amorphous form)
Method: Experimental animals: healthy adult SD rats, male, 6 in total, divided into two groups, with 3 rats per group, aged 6-8 weeks; and body weight approximately 200-300 g. The rats were fed in rat cages, and fasted (for at least 10 hours) with free access to water one day before the experiment. On the day of experiment, the rats were weighed and marked at the tail respectively. Blank blood samples were collected respectively before drug administration. The blood samples were collected via the tail vein. Drug administration method: intragastric gavage (p.o.): intragastric gavage with drug suspension; preparation of drug suspension: approximately 10 mg of test sample was accurately weighed, dissolved in 5% DMSO (calculated proportion), and vortexed with 10% solutol HS-15 and 85% saline to obtain a suspension with a concentration of 1.0 mg/mL; and the suspension was freshly prepared before use.
Sample collection: the rats were administered a single oral dose of 10mg/kg via intragastric gavage (p.o.). Timing was started immediately after the administration was completed, and blood samples were collected at 0.5, 1, 2, 4, 6, 8, 12 and 24 hours after administration. A volume of 0.1mL of whole blood was collected into EDTA-Na2 anticoagulant tubes, mixed by inverting 3-4 times, centrifuged at 10000 g for 5 minutes at 4°C to separate the plasma, and then the plasma was stored at -80 °C until testing. The blood samples were collected via the tail vein.
Sample preparation: 1) the samples were thawed, and 15 µL of unknown plasma samples before or after administration, standard series solutions, and single blank and double blank samples were respectively transferred into 1.5 mL centrifuge tubes. 2) 15 µL of protein precipitant (methanol) and 400 µL of internal standard solution (verapamil in methanol, approximately 10 ng/mL) were added to each sample sequentially, vortexed for 2 minutes, and then centrifuged at 4°C and 12000 rpm for 10 minutes. 3) The supernatant was collected for LC-MS/MS detection.
Analytical conditions: liquid chromatography conditions: liquid chromatography system: Shimadzu Nexera X2; chromatographic column: Agilent ZORBAX XDB-C18 3.5 (2.1 × 50 mm); column temperature: 35°C; mobile phase: A-5% acetonitrile (0.1% formic acid in water), B-95% acetonitrile (0.1% formic acid in water); injection volume: 3 µL; and
flow rate: 0.5 mL/min. Gradient elution was employed, and an elution program can be seen in the table below.
Mass spectrometry conditions: mass spectrometric analysis was carried out using an electrospray ionization (ESI) source in a positive ion mode with multiple reaction monitoring (MRM). The mass spectrometer ion source parameters and compound detection parameters can be seen in the table below.
PK parameter processing: pharmacokinetic (PK) parameters were calculated according to a plasma concentration from individual plasma concentration and corresponding sampling time data using Phoenix WinNonlin software with a non-compartmental model. (1) The PK parameters used for pharmacokinetic evaluation included: Cmax, AUC0-t, AUC0-∞, Tmax and t1/2.
(2) The parameters used for bioequivalence evaluation: Cmax, AUC0-t and AUC0-∞ were used for the bioequivalence evaluation.
Cmax: maximum plasma concentration measured within specified period, presented as measured value.
Tmax: time measured to reach maximum plasma concentration, presented as measured value. If the maximum value occurred at more than one time point, Tmax was defined as the first time point at which this value was observed.
AUC0-t: area under plasma concentration-time curve from 0 to last time point t.
AUC0-∞: area under plasma concentration-time curve from 0 to infinity. Ct was the last measured concentration, and λz was the terminal elimination rate constant. AUC0−∞ = AUC0−t + (Ct)/(λz)AUC0−∞ = AUC0−t + (Ct)/(λz) [formula]
t1/2: elimination or terminal half-life, estimated by ln2/λz.

[1] = Mean of rats No. 1-3, intragastric gavage at 10 mg/kg
[2] = rat No. 1, intragastric gavage at 10 mg/kg
[3] = rat No. 2, intragastric gavage at 10 mg/kg
[4] = rat No. 3, intragastric gavage at 10 mg/kg
[5] = rats, intragastric gavage 10 mg/kg, Mean

SMILES: C[C@@H](Nc1ccn2ncc(C3=NOC(C)(C)N3)c2n1)c1cc(F)cc(F)c1F [amorphous form]
- HL_ [1]: 8.72 h
- HL_ [2]: 6.05 h
- HL_ [3]: 17.2 h
- HL_ [4]: 2.93 h
- AUC(0-inf) [1]: 1560 ng·h/mL
- AUC(0-t) [1]: 1080 ng·h/mL
- Cmax [1]: 151 ng/mL
- MRT last [1]: 7.55 h
- Tmax [1]: 6 h
- AUC(0-inf) [2]: 982 ng·h/mL
- AUC(0-t) [2]: 894 ng·h/mL
- Cmax [2]: 87.1 ng/mL
- MRT last [2]: 7.84 h
- Tmax [2]: 8 h
- AUC(0-inf) [3]: 3200 ng·h/mL
- AUC(0-t) [3]: 1910 ng·h/mL
- Cmax [3]: 307 ng/mL
- MRT last [3]: 9.26 h
- Tmax [3]: 4 h
- AUC(0-inf) [4]: 487 ng·h/mL
- AUC(0-t) [4]: 428 ng·h/mL
- Cmax [4]: 58.3 ng/mL
- MRT last [4]: 5.56 h
- Tmax [4]: 6 h
- AUC(0-t) [5]: 1080 ng·h/mL
- Cmax [5]: 151 ng/mL
- Plasma concentration (rats, 0.5 h, Mean): 41.0 ng/mL
- Plasma concentration (rats, 0.5 h, No. 1): 44.5 ng/mL
- Plasma concentration (rats, 0.5 h, No. 2): 49.0 ng/mL
- Plasma concentration (rats, 0.5 h, No. 3): 29.4 ng/mL
- Plasma concentration (rats, 1 h, Mean): 22.5 ng/mL
- Plasma concentration (rats, 1 h, No. 1): 20.8 ng/mL
- Plasma concentration (rats, 1 h, No. 2): 21.5 ng/mL
- Plasma concentration (rats, 1 h, No. 3): 25.3 ng/mL
- Plasma concentration (rats, 2 h, Mean): 56.2 ng/mL
- Plasma concentration (rats, 2 h, No. 1): 64.1 ng/mL
- Plasma concentration (rats, 2 h, No. 2): 71.2 ng/mL
- Plasma concentration (rats, 2 h, No. 3): 33.2 ng/mL
- Plasma concentration (rats, 4 h, Mean): 142 ng/mL
- Plasma concentration (rats, 4 h, No. 1): 71.7 ng/mL
- Plasma concentration (rats, 4 h, No. 3): 47.9 ng/mL
- Plasma concentration (rats, 6 h, Mean): 86.2 ng/mL
- Plasma concentration (rats, 6 h, No. 1): 72.4 ng/mL
- Plasma concentration (rats, 6 h, No. 2): 128 ng/mL
- Plasma concentration (rats, 6 h, No. 3): 58.3 ng/mL
- Plasma concentration (rats, 8 h, Mean): 68.7 ng/mL
- Plasma concentration (rats, 8 h, No. 1): 87.1 ng/mL
- Plasma concentration (rats, 8 h, No. 2): 84.3 ng/mL
- Plasma concentration (rats, 8 h, No. 3): 34.7 ng/mL
- Plasma concentration (rats, 12 h, Mean): 24.4 ng/mL
- Plasma concentration (rats, 12 h, No. 1): 18.6 ng/mL
- Plasma concentration (rats, 12 h, No. 2): 40.6 ng/mL
- Plasma concentration (rats, 12 h, No. 3): 14.0 ng/mL
- Plasma concentration (rats, 24 h, Mean): 31.2 ng/mL
- Plasma concentration (rats, 24 h, No. 1): 10.2 ng/mL
- Plasma concentration (rats, 24 h, No. 2): 52.2 ng/mL
